For data set [1], the system named is PANC1 pancreatic adenocarcinoma cells. As to the kind of experiment: PANC1 tumor growth in vivo. Also on record: species or system nude mice. The note with it: 60 mg/kg ip bolus every 48 hours, 5 doses. The method, then: Dose: 60 mg/kg ip bolus injection every 48 hours. 5 total doses. 5-7 tumors per group. PANC1 pancreatic adenocarcinoma cell line.
PANC1 pancreatic adenocarcinoma cells were implanted subcutaneously into nude mice. Mice were then given a bolus injection of one of the inventive irestatins (1401, 9337, 3611 or 9389) at a dose of 60 mg/kg every 48 hours for a total of 5 doses, with 5-7 tumors being treated per group.

For data set [2], the system named is HT1080 s.c. tumor xenografts. In kind it is in vivo. The method, then:
Female 4-6 week-old SCID (B6.CB 17) mice supplied by Stanford University Animal Facility were housed in the same facility (American Association of Laboratory Animal Care-approved) with 12 hour light cycles. Food and water were provided ad libitum. All experiments were approved by the institutional care and use committee. The potential toxicities of irestatin 9389 were examined in SCID mice injected i.p. once daily over 4 consecutive days with increasing doses of irestatin 9389 or vehicle control. […] For xenografts, 2×10^6 HT1080 fibrosarcoma cells were resuspended in 50-75 μl PBS and injected s.c. in the dorsal flanks of host mice. When the implanted tumors reached a mean volume of ˜150 mm^3, mice were randomly assigned into different treatment groups. Mice were dosed by i.p. bolus injection with either vehicle (50% DMSO, 20% cremophor EL, 30% ethanol) or irestatin 9389 (50 mg/kg). Tumors (6-8 per group) were measured every 2-4 days with calipers. Tumor volume was calculated using the formula [(W^2×L) 0.52] where W=width and L=length.
A. Irestatin 9389 impairs IRE1α activity in implanted tumor xenografts. Equal numbers (2×10^6) of XBP-luciferase or CMV-luciferase reporter cells were implanted s.c. into SCID mice. After one week, mice were treated with irestatin 9389 (50 mg/kg), followed by optical bioluminescence imaging. B. Inhibition of tumor growth by irestatin 9389. HT1080 s.c. tumor xenografts were established in SCID mice and allowed to reach a mean volume of 150 mm^3 before treatment. Irestatin 9389 (50 mg/kg) or vehicle control was administered q 2d by i.p. injection and continued for 2 weeks, for a total of 6 doses. Tumor volumes were calculated based on caliper measurements taken every 3-5 days. Data points represent the mean volume calculated from at least 7 tumors per group, with SEM shown in one direction. Mean mouse weights+/−SEM are shown in bottom graph. C.
Next, we tested if treatment with irestatin 9389 could have a direct impact on tumor growth. […]

In data set [3] the test system is HIF-1α. As to the kind of experiment: Western immunoblot of HIF-1α, HT1080 cells under hypoxia. In kind it is cell-based, human. Conditions: 2 μM; 24 hours of hypoxia. The method, then:
Cells (2×10^6) were cultured in 10-cm dishes, collected using a cell scraper at 4° C., and lysed by addition of 150 μl cell lysis buffer [50 mM Tris pH 7.4, 150 mM NaCl, 10% glycerol, 0.5% Triton X-100. 0.5% NP-40, 2 mM Na3VO4, 20 mM beta-glycerophosphate, 10 mM NaF, 1 mM DTT, 1 mM PMSF). Lysates were centrifuged for 5 min at 10,000×g, and proteins (˜40 μg) were resolved by SDS-PAGE followed by semi-dry transfer to nitrocellulose membranes. Membranes were blocked in TBS-5% milk supplemented with 0.1% Tween-20. The blots were then probed overnight with relevant antibodies, washed, and incubated for 2 hours with species-specific secondary antibodies conjugated to horseradish peroxidase. After washing in block solution, immunoreactive material was detected by enhanced chemiluminescence (SuperSignal West Dura Extended, Pierce, Inc., Rockville, Ill.).
A. XBP-luciferase reporter construct. […] After 24 hours, luciferase activity was analyzed in an automated plate reader. For each cell line, values are expressed as the percent inhibition of the median for Tm/Tg-treated wells, corrected for background. […] Values are expressed as the fold increases over uninduced levels. […] Cells were harvested, lysed, and analyzed by immunoblotting with antisera specific for HIF-1α (top), XBP-1s (middle) or actin (bottom). […] Total RNA was analyzed by Northern blotting using radiolabeled probes specific for P58^IPK or DER-1. […]

As to `Cc1csc(NC(=O)CSc2nc3c(c(C(F)(F)F)c2C#N)CCC3)n1` [Compound 9389], the tumor growth entry in data set [1] is given as “significant tumor growth was observed in untreated mice, but not in mice treated with the irestatins”. The antitumor effects entry in data set [2] (50 mg/kg i.p. every other day, 6 doses) is “significant cytostatic antitumor effects”. Further, the mean tumor volume in data set [2] (50 mg/kg i.p. every other day, 6 doses, one week after the last treatment, P<0.01) is given as 480+/−210 mm^3. For the same molecule, the “weight loss compared to vehicle-treated mice” value in data set [2] (mouse, in vivo) is “did not exhibit significant long-term weight loss”. Further, the “expression of HIF-1α” value in data set [3] was “not affected”.
